How the values were obtained:
[1] = system: plasma renin activity; test: Inhibition of evoked (drug-induced) elevation of plasma renin activity in conscious rats; type: in vivo, male Wistar rats; conditions: Rattus norvegicus, 30 min before provocative treatment; for inhibition in vivo at 25 mg/kg: 25 mg/kg oral
Description: Inhibition of evoked increase of plasma renin activity was determined by the following test.
Compounds were tested for their ability to prevent drug-induced elevation of plasma renin activity (PRA) in concious, male Wistar rats (180-200 g, Charles River Lab.). PRA elevation was induced by a combined oral provacative treatment (C) of hydrochlorothiazide (10 mg/kg) and 1-(3-benzoyl-3-mercapto-2-methylpropionyl)-L-proline, acetate (U.S. Pat. No. 4,226,775) (one mg/kg), prepared by compounding in a mortar and pestle with preboiled 3% starch suspension. This treatment provided the daily maximum PRA. The daily minimum PRA was obtained from rats given oral starch suspension (S) alone. The magnitude of drug effect on PRA elevation was ascertained from rats pretreated orally with test agent (D), at the indicated doses, 30 minutes prior to administration of provacative treatment (C). The test agent was also compounded in preboiled 3% starch suspension. The dose volumes for both pretreatment and provocative treatment were 2 ml/kg. One hour after provocative treatment the rats were sacrificed by decapitation and the first 3 seconds of blood collected in two chilled Vacutainer® tubes (Becton-Dickinson, Rutherford, N.J.) containing 40 μl of 150 mg/ml tripotassium EDTA. The plasma fractions, obtained by centrifugation for 20 minutes at 4° C. and 3000 G, were incubated (one of each pair at 37° C., the other at 4° C.) at pH 6.8 in 50 mM phosphate buffer to produce angiotensin I. The incubates contained peptidase inhibitors to prevent angiotensin I degradation and the incubation buffer contained one mg/ml lysozyme (Sigma Grade III) used as an antiabsorbant. The incubates were diluted 20 fold in cold 100 mM Tris buffer (pH adjusted to 7.4 with glacial acetic acid) also containing one mg/ml lysozyme, and then frozen. Diluted incubates were assayed within 3 days for angiotensin I content by radioimmunoassay according to a modification of the method of Haber, et al., J. Clin. Endocrin., 29, 1349-1355 (1969).
PRA is calculated as follows:
PRA(ng AI/hour/ml plasma)=PRA 37° C.-PRA 4° C.
Percent inhibition of PRA elevation is calculated as follows: [formula]

[2] = system: spontaneously hypertensive rats (SHR); test: Diuretic activity in spontaneously hypertensive rats; type: in vivo, male spontaneously hypertensive rats (Okamoto strain); conditions: 100 mg/kg by gavage with 0.9% sodium chloride loading 25 ml/kg; 0-5 hour urine
Description: The diuretic activity of the compounds of this invention was also determined according to the method of Chan, P. S. and Poorvin, D., Sequential method for combined screening antihypertensive and diuretic agents in the same spontaneously hypertensive rat. Clinical and Experimental Hypertension, 1(6), 817-830 (1979).
Male spontaneously hypertensive rats (SHR) of Okamoto strain, 16 weeks old, Taconic Farms Inc. were used in the test. These rats were kept on Purina laboratory chow and tap water ad libitum for 8 weeks before use. One male adult rat (about 300 g) was dosed by gavage with a test compound at 100 mg/kg together with 0.9% sodium chloride loading at 25 ml/kg at zero hour. The test compound was suspended in 3% preboiled starch at 50 mg/ml. The rat was put in a metabolism cage. The 0-5 hour urine was collected and urinary sodium and potassium were determined using a Beckman Astra 4. The effects of representative compounds of the invention according to this test appear in Table III expressed in milliequivalents (mEQ) of urinary sodium and potassium excreted.

| Compound | inhibition in vivo at 25 mg/kg [1] | Potassium (urinary excretion) [2] | Sodium (urinary excretion) [2] | Volume (urine) [2] | inhibition in vivo at 50 mg/kg ([1]; 50 mg/kg oral) | inhibition in vivo at 100 mg/kg ([1]; 100 mg/kg oral) |
| --- | --- | --- | --- | --- | --- | --- |
| O=C(N=P(c1ccccc1)(c1ccccc1)c1ccccc1)OCc1cccnc1 [(triphenylphosphoranylidene)carbamic acid, 3-pyridinylmethyl ester] | 40% | 1.00 mEQ/5 Hours | 1.60 mEQ/5 Hours | 14.5 mL | – | – |
| C=CCOC(=O)N=P(c1ccccc1)(c1ccccc1)c1ccccc1 [(triphenylphosphoranylidene)carbamic acid, 2-propenyl ester] | 67% | 0.67 mEQ/5 Hours | 1.17 mEQ/5 Hours | 13.3 mL | – | – |
| Cc1ccccc1P(=NC(=O)OC1CCOC1)(c1ccccc1)c1ccccc1 (centres unmarked) [[(2-Methylphenyl)diphenylphosphoranylidene]carbamic acid, tetrahydro-3-furanyl ester] | 93% | 0.97 mEQ/5 Hours | 2.71 mEQ/5 Hours | 22.3 mL | – | – |
| CCCOC(=O)N=P(c1ccccc1)(c1ccccc1)c1ccccc1 [(Triphenylphosphoaranylidene)carbamic acid, n-propyl ester] | 90% | 0.48 mEQ/5 Hours | 1.37 mEQ/5 Hours | 12.5 mL | – | – |
| O=C(N=P(c1ccccc1)(c1ccccc1)c1ccccc1)OC1CCOC1 (centres unmarked) [(Triphenylphosphoranylidene)carbamic acid, tetrahydro-3-furanyl ester] | 69% | 0.70 mEQ/5 Hours | 1.10 mEQ/5 Hours | 14.8 mL | 49% | 85% |
| COC(=O)N=P(c1ccccc1)(c1ccccc1)c1ccccc1 [(Triphenylphosphoranylidene)carbamic acid, methyl ester] | 72% | 0.55 mEQ/5 Hours | 2.53 mEQ/5 Hours | 23.3 mL | – | – |
| CCOC(=O)N=P(c1ccccc1)(c1ccccc1)c1ccccc1C [[(2-Methylphenyl)diphenylphosphoranylidene]carbamic acid, ethyl ester] | 92% | 0.78 mEQ/5 Hours | 2.68 mEQ/5 Hours | 25.5 mL | – | – |
| COC(=O)N=P(c1ccccc1)(c1ccccc1)c1ccccc1Cl [[(2-chlorophenyl)diphenylphosphoranylidene]carbamic acid, methyl ester] | 98% | 0.94 mEQ/5 Hours | 2.30 mEQ/5 Hours | 20.0 mL | – | – |
| CCOC(=O)N=P(c1ccccc1)(c1ccccc1C)c1ccccc1C [[bis(2-methylphenyl)phenylphosphoranylidene]carbamic acid, ethyl ester] | 54% | 0.73 mEQ/5 Hours | 1.46 mEQ/5 Hours | 14.5 mL | – | – |
| O=C(N=P(c1ccccc1)(c1ccccc1)c1ccccc1)OCc1ccncc1 [(triphenylphosphoranylidene)carbamic acid, 4-pyridinylmethyl ester] | – | 0.70 mEQ/5 Hours | 1.50 mEQ/5 Hours | 16.5 mL | – | – |
| C[C@@H]1CCC[C@H]1OC(=O)N=P(c1ccccc1)(c1ccccc1)c1ccccc1 (relative stereo) [(triphenylphosphoranylidene)carbamic acid, trans-2-methylcyclopentyl ester] | – | 0.68 mEQ/5 Hours | 1.55 mEQ/5 Hours | 14.3 mL | – | – |
| COC(=O)N=P(c1ccccc1)(c1ccccc1)c1ccccc1C [[(2-methylphenyl)diphenylphosphoranylidene]carbamic acid, methyl ester] | – | 0.88 mEQ/5 Hours | 1.95 mEQ/5 Hours | 18.3 mL | – | – |
| CC#CCOC(=O)N=P(c1ccccc1)(c1ccccc1)c1ccccc1 [(triphenylphosphoranylidene)carbamic acid, 2-butynyl ester] | – | 0.57 mEQ/5 Hours | 1.15 mEQ/5 Hours | 10.0 mL | – | – |
| CCOC(=O)N=P(c1ccccc1)(c1ccccc1)c1c(C)cccc1C [[[(2,6-dimethylphenyl)diphenyl]phosphoranylidene]carbamic acid, ethyl ester] | – | 0.86 mEQ/5 Hours | 1.48 mEQ/5 Hours | 13.0 mL | – | – |
| CCOC(=O)N=P(c1ccccc1)(c1ccccc1)c1cccc(Br)c1 [[(3-Bromophenyl)diphenylphosphoranylidene]carbamic acid, ethyl ester] | – | 0.78 mEQ/5 Hours | 1.16 mEQ/5 Hours | 12.4 mL | – | – |
| CC1(OC(=O)N=P(c2ccccc2)(c2ccccc2)c2ccccc2)CCCC1 [(Triphenylphosphoranylidene)carbamic acid, 1-methylcyclopentyl ester] | – | 0.86 mEQ/5 Hours | 1.49 mEQ/5 Hours | 14.8 mL | – | – |
| CCc1ccccc1P(=NC(=O)OC)(c1ccccc1)c1ccccc1 [[(2-ethylphenyl)diphenylphosphoranylidene]carbamic acid, methyl ester] | – | 0.58 mEQ/5 Hours | 1.36 mEQ/5 Hours | 14.3 mL | – | – |
| CO[C@@H]1CCCC[C@H]1OC(=O)N=P(c1ccccc1)(c1ccccc1)c1ccccc1 (relative stereo) [(triphenylphosphoranylidene)carbamic acid, trans-2-methoxycyclohexyl ester] | – | 0.67 mEQ/5 Hours | 1.45 mEQ/5 Hours | 12.8 mL | – | – |
| CCCC1(OC(=O)N=P(c2ccccc2)(c2ccccc2)c2ccccc2)CCCC1 [(triphenylphosphoranylidene)carbamic acid, 1-propylcyclopentyl ester] | – | 0.63 mEQ/5 Hours | 1.14 mEQ/5 Hours | 10.3 mL | – | – |
| CCOC(=O)N=P(c1ccccc1)(c1ccccc1)c1cccc(Cl)c1Cl [[(2,3-dichlorophenyl)diphenylphosphoranylidene]carbamic acid ethyl ester] | – | 0.86 mEQ/5 Hours | 1.83 mEQ/5 Hours | 14.3 mL | – | – |
| CCOC(=O)N=P(c1ccccc1)(c1ccccc1)c1ccccc1Br [[(2-bromophenyl)diphenylphosphoranylidene]carbamic acid, ethyl ester] | – | 0.68 mEQ/5 Hours | 2.51 mEQ/5 Hours | 22.5 mL | – | – |
| COC(=O)N=P(c1ccccc1)(c1ccccc1)c1cccc(Cl)c1 [[(3-chlorophenyl)diphenylphosphoranylidene]carbamic acid, methyl ester] | – | 0.60 mEQ/5 Hours | 2.45 mEQ/5 Hours | 23.0 mL | – | – |

Source: patent US4767749A, “Ester of (triarylphosphoranylidene)carbamic acid having diuretic and ability to lower plasma renin properties” (American Cyanamid Company, priority 1986, dated 1988)
